From PMC10246557, “Kinetic and inhibition studies on human Jumonji-C (JmjC) domain-containing protein 5” (RSC Chemical Biology, 2023)
Like-named read-outs stand apart in the source and are kept apart here. Ends that are not written are not given here.

Tests used:
[1] = test system: JMJD5; conditions: cited from earlier work; for K m: 10.0 μM JMJD5, 50 mM HEPES pH 7.5, read-out: Km JMJD5 (MALDI-TOF MS assay)
[2] = test system: PHD2; parameters: method as in PMID 18952043; conditions: PHD2 1.0 nM, cited from earlier work
[3] = test system: human AspH; conditions: cited from earlier work; for AspH (%): substrate hydroxylation with the compound as cosubstrate: absence of 2OG, AspH 0.1 μM, 2OG derivative 330 μM, Fe(II) 50 μM, hFX-CP101–119 2.0 μM
[4] = target: T1, human JMJD5 (Homo sapiens, UniProt Q8N371); assay: SPE-MS JMJD5 turnover and kinetic assay (RPS6_128–148 hydroxylation); format: biochemical; conditions: for k app cat: calculated from vmax; for JMJD5 (%): RPS6_128–148 hydroxylation with the compound as cosubstrate: absence of 2OG, JMJD5 0.15 μM, 2OG derivative 400 μM, Fe(II) 20 μM, RPS6_128–148 2.0 μM
T1 construct: made in house; host or cells: Escherichia coli BL21(DE3)
T1 sequence (Q8N371 whole entry): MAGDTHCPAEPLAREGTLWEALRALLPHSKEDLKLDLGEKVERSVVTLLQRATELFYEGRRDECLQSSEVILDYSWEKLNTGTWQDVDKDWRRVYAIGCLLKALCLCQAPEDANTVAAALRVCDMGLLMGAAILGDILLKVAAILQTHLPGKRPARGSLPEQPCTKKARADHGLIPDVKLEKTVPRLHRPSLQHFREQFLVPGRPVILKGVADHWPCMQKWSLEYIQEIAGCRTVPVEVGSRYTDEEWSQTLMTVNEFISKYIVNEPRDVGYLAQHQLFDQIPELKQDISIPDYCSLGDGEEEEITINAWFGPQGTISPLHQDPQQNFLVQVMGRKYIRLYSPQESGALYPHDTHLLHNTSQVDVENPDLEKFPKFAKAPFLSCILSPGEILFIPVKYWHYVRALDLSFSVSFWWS

[5] = test system: human FIH; conditions: FIH 0.15 μM, cited from earlier work; for FIH (%): substrate hydroxylation with the compound as cosubstrate: absence of 2OG, 2OG derivative 330 μM, Fe(II) 50 μM, HIF-1α788–822 5.0 μM
[6] = target: T2, human KDM4E (Homo sapiens, UniProt B2RXH2); assay: KDM4E SPE-MS turnover and kinetic assay (H3 K9(me3) peptide demethylation); format: biochemical; conditions: for KDM4E (%): substrate demethylation with the compound as cosubstrate: absence of 2OG, KDM4E 0.15 μM, 2OG derivative 330 μM, Fe(II) 50 μM
T2 sequence (B2RXH2 1-506): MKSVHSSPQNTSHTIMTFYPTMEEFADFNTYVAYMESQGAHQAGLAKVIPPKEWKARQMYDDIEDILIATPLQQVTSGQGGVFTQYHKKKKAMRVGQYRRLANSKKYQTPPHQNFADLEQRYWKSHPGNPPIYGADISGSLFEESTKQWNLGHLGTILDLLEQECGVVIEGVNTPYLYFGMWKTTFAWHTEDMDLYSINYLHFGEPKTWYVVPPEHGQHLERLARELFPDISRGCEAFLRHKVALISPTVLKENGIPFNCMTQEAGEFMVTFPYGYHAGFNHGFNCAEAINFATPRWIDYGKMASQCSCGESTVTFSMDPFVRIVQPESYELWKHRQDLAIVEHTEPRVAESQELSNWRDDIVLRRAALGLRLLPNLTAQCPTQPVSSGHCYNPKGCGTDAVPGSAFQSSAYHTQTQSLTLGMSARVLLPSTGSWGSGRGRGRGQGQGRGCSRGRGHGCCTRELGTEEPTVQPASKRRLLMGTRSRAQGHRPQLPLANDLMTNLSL

[7] = test system: KDM4C; parameters: method as in PMID 21859681; conditions: KDM4C 0.5 μM, ARTAQTARK(me3)STGGIA substrate; cited from earlier work
[8] = test system: human FIH; parameters: method as in ref 10 (ESI); conditions: FIH 0.15 μM, HIF-1α788-822 5.0 μM, 2OG 10 μM; ref 10 (ESI); cited from earlier work
[9] = target: T2, human KDM4E; assay: KDM4E SPE-MS inhibition assay; format: biochemical; conditions: KDM4E 0.15 μM, peptide 10.0 μM, LAA 100 μM, FAS 10 μM, 2OG 10 μM
Protocol: KDM4E turnover and inhibition assays were performed as reported using recombinant human KDM4E and a histone 3 K9(me3) derivative (i.e. […](me3)STGGIA)[41] as substrate.[95] […]

[10] = target: T1, human JMJD5; assay: SPE-MS JMJD5 inhibition assay; format: biochemical; conditions: JMJD5 0.15 μM, 2OG 2.0 μM, Fe(II) 2.0 μM, LAA 100 μM, RPS6_128–148 2.0 μM; read-out: IC50 JMJD5
Protocol: Solutions of the small-molecules (100% DMSO) were dry dispensed across 384 well polypropylene V-bottom assay microplates (Greiner) in an approximately three-fold and 11-point dilution series (100 μM inhibitor top concentration; the final DMSO assay concentration was kept constant at 0.5%v/v) using an ECHO 550 acoustic dispenser (Labcyte). […] Each reaction was performed in technical duplicates in adjacent wells of the assay plates; additionally, assays were performed in two independent duplicates on different days using different inhibitor solutions.
The Enzyme Mixture (25 μL per well), containing 0.3 μM His6-thioredoxin-tagged JMJD5 in buffer (50 mM MOPS, pH 7.5), was dispensed across the inhibitor-containing 384-well plates with a multidrop dispenser (ThermoFischer Scientific) at 20 °C under an ambient atmosphere. The plates were subsequently centrifuged (1000 rpm, 5 s) and incubated for 15 min at 20 °C. […] The plates were centrifuged (1000 rpm, 5 s) and, after incubating for 30 min, the enzyme reaction was stopped by the addition of 10%v/v aqueous formic acid (5 μL per well). The plates were then centrifuged (1000 rpm, 30 s) and analyzed by MS.
Z′-Factors were calculated according to the cited literature using Microsoft Excel.[61]

[11] = test system: human AspH; parameters: method as in ref 9 (ESI); conditions: AspH 0.05 μM, hFX-CP101-119 1.0 μM, 2OG 3.0 μM; ref 9 (ESI); cited from earlier work
[12] = AspH315–758 0.1 μM, hFX–CP101–119 substrate
[13] = 0.15 μM JMJD5, 50 mM MOPS pH 7.5, 20 °C, 100 μM LAA present
[14] = 0.15 μM JMJD5, 50 mM MOPS pH 7.5, 20 °C, LAA present

Compound | K m [1] [µM] | FIH (%): substrate hydroxylation with the compound as cosubstrate [5] | KDM4E (%): substrate demethylation with the compound as cosubstrate ([6]; ARTAQTARK(me3)STGGIA 10.0 μM) | JMJD5 (%): RPS6_128–148 hydroxylation with the compound as cosubstrate [4] | IC50 [8] [µM] | IC50 [9] [µM] | AspH (%): substrate hydroxylation with the compound as cosubstrate [3] | IC50 [10] [µM] | IC50 [11] [µM] | other results
ammonium iron(II) sulfate hexahydrate [Fe(II)] | ~2.7 |  |  |  |  |  |  |  |  | K m ([2]; biotin-DLEMLAPYIPMDDDFQ substrate): 0.89 ± 0.07 µM; K m [3, 12]: 1.42 ± 0.16 µM; k cat [3, 12]: 0.19 ± 0.03 s⁻¹; v app max [4, 13]: 0.75 ± 0.03 nM/s; k app cat [4, 14]: 0.005 ± 0.0002 s⁻¹; K app m ([4]; 0.15 μM JMJD5, absence of LAA): 0.46 ± 0.11 µM; v app max ([4]; 0.15 μM JMJD5, absence of LAA): 0.73 ± 0.05 nM/s; k app cat ([4]; 0.15 μM JMJD5, absence of LAA): 0.0049 ± 0.0004 s⁻¹
O=C(O)CCC(=O)C(=O)O [2OG, 2-oxoglutarate, reference compound] | ~9.5 | ~ 50% | ~ 70% | ~ 40% |  |  |  |  |  | K m ([5]; HIF-1α788–822 substrate): 0.8 ± 0.1 µM; k cat ([5]; HIF-1α788–822 substrate): 0.04 ± 0.01 s⁻¹; K app m ([6]; 0.15 μM KDM4E, ARTAQTARK(me3)STGGIA 10 μM): 4.2 ± 1.1 µM; v app max ([6]; 0.15 μM KDM4E, ARTAQTARK(me3)STGGIA 10.0 μM, 50 mM MES pH 7.0, 20 °C): 20.6 ± 1.3 nM/s; K m ([2]; biotin-[…] substrate): 0.35 ± 0.03 µM; K m [3, 12]: 0.60 ± 0.09 µM; K m [7]: 2.6 ± 0.1 µM; k cat [7]: 0.075 ± 0.001 s⁻¹; v app max [4, 13]: 0.84 ± 0.03 nM/s; K app m [4, 14]: 0.29 ± 0.04 µM; k app cat [4, 14]: 0.0056 ± 0.0002 s⁻¹; JMJD5-catalyzed RPS6_128–148 hydroxylation, time course ([4]; after 50 min, 10 μM cosubstrate, 0.15 μM JMJD5, 10 μM Fe(II), 2.0 μM RPS6_128–148): ~50%
O=C(O)CNC(=O)c1ncc(-c2cccc(Cl)c2)cc1O [vadadustat] |  |  |  |  |  |  |  |  |  | IC50 ([1]; read-out: IC50 JMJD5 (MALDI-TOF MS assay)): ~54 µM
Cc1cc(C(=O)O)ccc1C(=O)C(=O)O [2OG derivative 32] |  | < 1% | < 1% | < 1% | > 50 | > 50 | ~ 5% | > 50 | > 50 | 
O=C(O)C(=O)c1ccc(C(=O)O)cc1Br [2OG derivative 30] |  | < 1% | < 1% | < 1% | > 50 | > 50 | ~ 20% | > 50 | > 50 | 
O=C(O)C(=O)c1ccc(C(=O)O)cc1F [2OG derivative 28] |  | < 1% | < 1% | < 1% | > 50 | > 50 | ~ 45% | > 50 | > 50 | 
RPS6_129–144: truncated version of the RPS6_128–148 substrate peptide used in MALDI-TOF MS assays (VPRRLGPKRASRIRKL-NH2; UniProt P62753 129-144, looked up, fragment) | ~60 |  |  |  |  |  |  |  |  | 
O=C(O)C(=O)c1ccc(C(=O)O)c(Br)c1 [2OG derivative 31] |  | < 1% | < 1% | < 1% | > 50 | > 50 | ~ 8% | > 50 | > 50 | 
